This passage reports IC50 and fold change results from PubChem BioAssay AID1419 (Emory University Molecular Libraries Screening Center, 2008).

Calls of active or inactive are those of the source. No rule for the calls is given here.

The test in a line: blockers of an Epstein-Barr virus protein-peptide interaction – biochemical, fluorescence polarization, dose response (AID 1419). The note with it: cell-free protein-peptide binding, 2 h; for fold change: measured here: P channel fold over control, at 54 µM. A general note: In fluorescence polarisation assays a small probe gives low polarisation when free and higher when bound to something large.

A word on the IC50: it is the concentration at which inhibition is half-maximal. For `Cc1cccn2c(=O)c(/C=C3\SC(=S)N(CC(C)C)C3=O)c(NCCCOC(C)C)nc12`, the IC50 was > 54 µM (inactive) and the fold change was determined as 1.37.

Regarding `COc1ccc(-c2csc(NC(=O)CSc3nc(C)nc4sc(C(=O)O)c(C)c34)n2)cc1`, the IC50 was > 54 µM (inactive) and the fold change was determined as 0.987.

In the case of `CCCCNC(=O)CN1C(=O)c2cccc(N)c2C1=O`, the concentration for half-maximal inhibition (IC50) was 2.71 µM and the fold change amounted to 2.44.

For the molecule `Cc1ccc(C(=O)NN2C(=O)/C(=C/c3cn(C)c4ccccc34)SC2=S)cc1`, the IC50 is 3.42 µM and the fold change is 6.95.

Turning to `CCCCn1c(N)c(NCCC(C)C)c(=O)[nH]c1=O`, the IC50 was 24.4 µM and the fold change amounted to 1.91.

As to `O=[N+]([O-])c1ccc(-c2cn3nc(-c4ccccc4)c(-c4ccccc4)nc3n2)cc1`, the IC50 was 3.58 µM and the fold change stood at 21.1.

Turning to `CCOc1ccc2nc(N3C(=O)/C(=C/c4ccc(Cl)cc4)NC3=S)sc2c1`, the IC50 was > 54 µM (inactive) and the fold change is 1.35.

As to `COCCN=c1scc(-c2ccco2)n1/N=C/c1ccc(O)c(O)c1O`, the half-inhibitory concentration (IC50) was 12 µM and the fold change is 1.04.

In the case of `O=c1[nH]c(=O)n(Cc2ccccc2Cl)c(O)c1/C=C1/C=CC=N1`, the IC50 was > 54 µM (inactive) and the fold change came to 1.75.

With `CC(C)N(C(=O)C[n+]1ccc(/C=N/O)cc1)C(C)C`, the IC50 is > 54 µM (inactive) and the fold change was 1.05.

With `O=C1C(=Cc2ccc(Br)o2)C(=O)c2ccccc21`, the IC50 was > 54 µM (inactive) and the fold change came to 1.09.

With `COc1ccc(N=C2NC(=O)S/C2=C\c2ccc(N(C)C)cc2)cc1`, the IC50 is 4.75 µM and the fold change worked out at 3.03.

On to `O=[N+]([O-])c1ccc(N2N=C(c3ccco3)CC2c2ccccc2)cc1` (configuration not stated), for which the IC50 was 14.2 µM and the fold change was 2.85.

On to `O=c1c(/C=C(\O)c2ccccc2)nc2ccccc2n1-c1ccccc1`, for which the IC50 is 14.1 µM and the fold change is 27.6.

On to `Cc1ncc([N+](=O)[O-])n1Cc1cccc2ccccc12`, for which the IC50 was > 54 µM (inactive) and the fold change came out at 0.957.

As for `CN(C)c1ccc(/C=C(\C#N)C(=O)Nc2nc3c(s2)CCN(Cc2ccccc2)C3)cc1`, the 50% inhibitory concentration (IC50) is 1.21 µM and the fold change amounted to 19.9.

Turning to `CCOc1cc(Br)c(Br)c(C=Nc2ccc(NC(C)=O)cc2)c1O`, the concentration for half-maximal inhibition (IC50) was 1.93 µM and the fold change was determined as 8.05.

For the molecule `O=C(OCCN1C(=O)c2cccc3c(N4CCOCC4)ccc(c23)C1=O)c1ccc(Cl)cc1`, the half-maximal inhibitory concentration (IC50) was 4.07 µM and the fold change was 53.3.

For `COc1cc(C2C(C#N)=C(N)OC3=C2C(=O)CC(C)(C)C3)c([N+](=O)[O-])cc1OC` (configuration not stated), the IC50 is 6.61 µM and the fold change is 1.98.

Turning to `CCN1/C(=C2\SC(=S)N(Cc3ccccc3)C2=O)Sc2ccccc21`, the IC50 was > 54 µM (inactive) and the fold change was 2.96.

In the case of `O=C(NNC(=O)c1sccc1-n1cccc1)c1cccc(Cl)c1`, the IC50 was > 54 µM (inactive) and the fold change was determined as 0.963.

As for `Cc1cc(NS(=O)(=O)c2ccc(NC(=O)c3cc4cc(Br)ccc4oc3=O)cc2)no1`, the half-maximal inhibitory concentration (IC50) is 13.7 µM and the fold change amounted to 1.15.

Consider `Cc1ccc(N=Nc2[nH]c3ccccc3c2O)cc1`, for which the 50% inhibitory concentration (IC50) is 4.87 µM and the fold change was found to be 27.

Take `O=C1CCCC2=C1Sc1ccc(Cl)cc1N2`: the concentration for half-maximal inhibition (IC50) was 5.79 µM and the fold change was 2.69.

With `O=C(Nc1ccc(Cl)c(Cl)c1)Nc1nnc(-c2ccncc2)s1`, the IC50 was 2.54 µM and the fold change was determined as 1.23.

In the case of `O=c1cc2oc3cc(O)c(O)cc3c(-c3ccccc3O)c-2cc1O`, the IC50 is 5.29 µM and the fold change was found to be 232.

With `O=c1oc2ccccc2cc1-c1nc(-c2cccs2)cs1`, the IC50 is 2.96 µM and the fold change came to 25.8.

With `COc1cc2c(cc1OC)-c1cc3ccc4c(c3c[n+]1CC2)OCO4`, the IC50 was under 0.42 µM and the fold change came out at 11.6.

Turning to `Nc1ccc(O)c2c1C(=O)c1ccccc1C2=O`, the 50% inhibitory concentration (IC50) is 3.1 µM and the fold change stood at 2.55.

As to `CS(=O)(=O)Nc1nc2n(n1)C(c1ccccc1)C=C(c1ccc(Br)cc1)N2` (configuration not stated), the IC50 is 5.72 µM and the fold change turned out to be 2.76.

For the molecule `CC(=O)OCCCNc1cc(Sc2nc3ccccc3s2)c2nonc2c1[N+](=O)[O-]`, the IC50 is 9.79 µM and the fold change came out at 4.44.

Regarding `C=CCSc1nccc(-c2cc(Cl)sc2Cl)n1`, the IC50 is > 54 µM (inactive) and the fold change came out at 0.953.

With `Cc1[nH]c(=O)[nH]c(=O)c1S(=O)(=O)N1CCN(c2ccccc2F)CC1`, the IC50 is > 54 µM (inactive) and the fold change came out at 1.04.

For the molecule `Cc1ccc(N2C(=O)c3cccc4c(N5CCN(C)CC5)ccc(c34)C2=O)c2cccnc12`, the IC50 is under 0.42 µM and the fold change worked out at 31.9.

As to `O=c1cc(-c2ccccc2)nc2c(-c3ccccc3)c(C(F)(F)F)[nH]n12`, the IC50 was > 54 µM (inactive) and the fold change amounted to 1.02.

With `CN1CCN(c2ccc([N+](=O)[O-])c3no[n+]([O-])c23)CC1`, the half-inhibitory concentration (IC50) was 1.32 µM and the fold change came out at 11.6.

Consider `O=C(O)COn1c(-c2ccccc2)nc2ccc([N+](=O)[O-])cc21`, for which the IC50 was > 54 µM (inactive) and the fold change came out at 1.17.

Consider `Cc1ccccc1N1C(=O)NC(=O)/C(=C\c2ccc3c(c2)CCCN3Cc2ccccc2)C1=O`, for which the half-inhibitory concentration (IC50) is 3.61 µM and the fold change came to 10.3.

As to `NC(=S)n1[nH]c(-c2ccc([N+](=O)[O-])cc2)c(N=Nc2cccc([N+](=O)[O-])c2)c1=O`, the half-maximal inhibitory concentration (IC50) is 3.71 µM and the fold change turned out to be 1.14.

`N#CC1=C(N)Oc2ccc3ccc(O)cc3c2C1c1ccsc1` (configuration not stated): the half-inhibitory concentration (IC50) was 1.97 µM and the fold change is 2.08.

`Cc1c2ccccc2nc2c(F)c(NCCO)c(F)c(F)c12`: the IC50 was under 0.42 µM and the fold change is 40.1.

Turning to `COc1ccc(C2C(C(=O)c3cccs3)=C(O)C(=O)N2c2nnc(C)s2)cc1OC` (configuration not stated), the IC50 is 3.11 µM and the fold change was determined as 10.8.

For `CCN(CC)c1ccc2cc(S(=O)(=O)c3ccc(Cl)cc3)c(=O)oc2c1`, the IC50 was 6.12 µM and the fold change was determined as 98.4.

Consider `CN(CCC#N)C(=O)COC(=O)c1c2c(nc3ccccc13)/C(=C/c1ccco1)CC2`, for which the half-maximal inhibitory concentration (IC50) is 3.18 µM and the fold change was found to be 2.86.

Regarding `COc1cc(/C=C2\SC(=O)N(Cc3ccc(Cl)cc3)C2=O)cc([N+](=O)[O-])c1O`, the IC50 was 24.9 µM and the fold change worked out at 1.04.

With `COc1ccc(-c2nc(CS(=O)CC(=O)NCc3cccnc3)c(C)o2)cc1` (configuration not stated), the IC50 was > 54 µM (inactive) and the fold change was 1.01.

In the case of `Cc1c2ccccc2nc2c(F)c(NC(C)C)c(F)c(F)c12`, the IC50 is under 0.42 µM and the fold change stood at 4.96.

`CC(=O)c1ccc(NC(=O)CSc2ccsc2[N+](=O)[O-])cc1`: the IC50 was > 54 µM (inactive) and the fold change was 1.06.

Take `Cc1ccc(N=Nc2c(O)n(CN3CCOCC3)c3ccccc23)cc1`: the IC50 is 2.43 µM and the fold change came to 10.9.

`COc1ccc(N=C2S/C(=C\c3ccc(OCC(=O)O)cc3)C(=O)N2CCc2c[nH]c3ccccc23)cc1`: the half-maximal inhibitory concentration (IC50) is 1.88 µM and the fold change amounted to 1.05.

Take `CC(C)c1nnc(N2C(=O)C(O)=C(C(=O)c3cccs3)C2c2ccccc2)s1` (configuration not stated): the 50% inhibitory concentration (IC50) is under 0.42 µM and the fold change was determined as 4.97.

Take `CCn1c(COc2ccccc2C)nnc1SCC(=O)N1CCC(C)CC1`: the IC50 is > 54 µM (inactive) and the fold change amounted to 0.897.

`O=C1C(=Cc2cccn2-c2ccc(O)cc2)C(=O)c2ccccc21`: the half-inhibitory concentration (IC50) was 1.94 µM and the fold change is 4.4.

As for `O=C(COC(=O)c1ccc(NS(=O)(=O)c2cccs2)cc1)NCc1ccco1`, the IC50 is > 54 µM (inactive) and the fold change stood at 1.01.

With `Nc1nnc(-c2cc3c(ccc4ccccc43)oc2=O)s1`, the IC50 was under 0.42 µM and the fold change amounted to 2.34.

As for `O=c1[nH]c2cc3c(cc2cc1CN(Cc1nnnn1CC1CCCO1)C1CCCCC1)OCO3` (configuration not stated), the IC50 is 51.6 µM (inactive) and the fold change was 1.73.

For the molecule `Nc1cc2c3c(cccc3c1)C(=O)N(CCN1CCCC1)C2=O`, the IC50 is 4.78 µM and the fold change amounted to 3.92.

Take `O=C(N/N=C/c1ccc(Cl)cc1)c1nc2ccc([N+](=O)[O-])cc2c(=O)[nH]1`: the IC50 is > 54 µM (inactive) and the fold change worked out at 1.04.

In the case of `CCOc1cc(/C=C(\C#N)c2nc(-c3cccs3)c(NC(C)=O)s2)ccc1O`, the IC50 was 3.62 µM and the fold change was 5.84.

On to `Cc1c(C(=O)NCCSCc2c(F)cccc2Cl)cnn1-c1ccc(Cl)cc1`, for which the IC50 is > 54 µM (inactive) and the fold change was 1.06.

With `Cn1c(SCC(=O)Nc2ccc3nc(SCC(=O)N4CCCC4)sc3c2)nnc1-c1ccccc1`, the IC50 is > 54 µM (inactive) and the fold change amounted to 1.08.

Take `COc1ccc(C2C=C(c3ccc(Br)s3)Nc3ncnn32)cc1OC` (configuration not stated): the half-maximal inhibitory concentration (IC50) was under 0.42 µM and the fold change amounted to 24.3.

With `COc1nc(N/N=C/c2ccc(-c3cccc([N+](=O)[O-])c3)o2)nc(N2CCOCC2)n1`, the half-inhibitory concentration (IC50) is 24.2 µM and the fold change worked out at 0.463.

For `CC(C)c1cc(=O)oc2c3c4c(cc12)CCCN4CCC3`, the 50% inhibitory concentration (IC50) was 1.88 µM and the fold change is 5.95.

Turning to `CCCCCn1c(N)c(-c2nc3ccccc3o2)c2c([N+](=O)[O-])nn(C)c(=O)c21`, the IC50 is 48.1 µM (inactive) and the fold change was 0.443.

Take `CCn1c(SCc2ccc(C(=O)Nc3nccs3)cc2)nnc1-c1ccc(N)cc1`: the IC50 was > 54 µM (inactive) and the fold change was 0.973.
